Values quoted from earlier work as cited in patent US20090325943A1, “VETERINARY PHARMACEUTICAL COMPOSITIONS FOR THE TREATMENT OF PAIN AND INFLAMMATION” (priority 2006, published 2009).

Legend:
[1] = dog, regardless of the administration route

## COc1cccc(C2(O)CCCCC2CN(C)C)c1 (stereo not shown) [tramadol]
6 animal species
  bond with the plasma proteins: modest
  peak plasma concentration (time to peak): ≤ 2 h
Administered by the i.m. route
  absorption: almost total
[1]
  half-life (elimination mainly by the renal route): approx. 2.5 hours
